Key:
[1] = tested on: formalin-induced nociceptive behaviors in rats; assay: Test B: Formalin test (formalin-induced paw flinches); type: in vivo, rat; details: dose 200 (unit not given), dosed three hours prior to formalin
From the text: The Formalin test is an assay that assesses the capacity of a compound to inhibit formalin-induced nociceptive behaviors in rats (D. Dubuisson, et al., Pain 4, 161-174 (1977); H. Wheeler-Aceto et al., Psychopharmacology 104, 3544 (1991); T. J. Coderre, et al., Pain 54, 43-50 (1993)). In the test, two distinctive phases of formalin-induced behaviors are observed. A first phase response, caused by acute nociception to the noxious chemical (formalin) injected into the paw, occurs between zero and five minutes. A quiescent period of 5 to 15 min post injection follows. After the quiescent period a second phase response, caused by sensitization of the central neurons in the dorsal horn, occurs after 15 minutes and lasts up to 60 minutes. Sensitization of the central neurons in the spine augments a noxious afferent input and causes a stronger pain barrage to be transmitted to the brain. Therefore, inhibition of the second phase response indicates a central mechanism of drug action.
The procedure for the formalin test is as follows: male rats are placed in a plexiglass chamber and observed for 30-45 min. to observe their baseline activity. Animals are either pretreated with vehicle or with different doses of a test compound. Animals are dosed with vehicle or test compound three hours prior to injection of 0.05 mL of sterile 1% formalin under the dorsal skin of a hind paw. The number of paw flinches (responses) during the first phase (0-5 min.) and the second phase (20-35 min.) are scored and recorded. Flinch response is compared with the mean score of a saline control group and calculated as percentage inhibition. The ED50 is the dose of compound which produces 50% inhibition of nociceptive response in the first or second phase response. First phase responses may be inhibited by compounds that act peripherally and by compounds that act centrally. Second phase response are inhibited by centrally active compounds.
Student's t-test was used for statistical analysis to determine the significance of compound effects. Data are reported as a dose that yielded a % inhibition of a response.

[2] = molecular target: T1, NMDA receptor glycine site (Rattus norvegicus, UniProt P35439); assay: Test A: Inhibition of binding of [3H]-MDL105,519 to brain membranes; details: inhibition of 1.2 nM [3H]MDL105,519 binding, brain membranes (rat or human not given)
T1 construct: The rat brain membranes used in the experiments were obtained from Analytical Biological Services Inc; tissue Analytical Biological Services Inc; host or cells: rat brain membranes (cerebral cortex and hippocampus, male Sprague Dawley rats)
From the text: Test A: Inhibition of Binding of [^3H]-MDL105,519:
Binding of compounds to the NMDA receptor glycine site may be assessed by measuring the ability of test compounds to inhibit the binding of tritiated MDL105,519 to brain membranes bearing the receptor.
Briefly, fresh brain tissue including cerebral cortex and hippocampus from male Sprague Dawley rats was homogenized in 0.32 M sucrose and centrifuged at low speed to separate cellular membranes from other cellular components. The membranes were then washed 3 times using deionized water, followed by treatment with 0.04% Triton X-100. Finally, membranes were washed six times in 50 mM Tris citrate buffer, pH 7.4, and frozen at −80° C. until use.
[^3H]MDL105,519 (72 Ci/mmol) was purchased from Amersham. Cold MDL105,519 was purchased from Sigma/RBI. […] On the day of the experiment, brain membranes were thawed at room temperature and suspended in 50 mM tris acetate buffer, pH 7.4 (“TAB”). Seventy-five micro grams per milliliter protein (by using the BioRad dye) were used for competition binding. The experiments were carried out using 96-well plates. […] Non specific binding was determined by using 100 μM of unlabeled MDL105,519. […] After incubation, unbound [^3H]MDL105,519 was removed by filtration onto GF/B Unifilter plates using a Packard harvester. Filters were washed four times with ice cold TAB (total of 1.2 mL buffer). The plates were dried overnight at room temperature and bound radioactivity was measured on a Packard TopCount after the addition of 45 μL per well of the MICROSCINT O.
Human Brain Membranes: Human brain membranes were obtained from Analytical Biological Services Inc., and assays were performed as described for rat membranes.
Data analysis: Data was analyzed using a Microsoft Excel spreadsheet and GraphPad Prizm software and potency of compounds is expressed as the Ki (nM).

[3] = tested on: CCI rats (thermal hyperalgesia); assay: Test C: Neuropathic pain model (Chronic Constriction Injury), thermal hyperalgesia, paw withdrawal latency; type: in vivo, rat; details: oral
From the text: Test C: Neuropathic Pain Model (Chronic Constriction Injury):
The anti-hyperalgesic properties of a compound may be tested with the Chronic Constriction Injury (“CCI”) model. The test is a model for neuropathic pain associated with nerve injuries that can arise directly from trauma and compression, or indirectly from a wide range of diseases such as infection, cancer, metabolic conditions, toxins, nutritional deficiencies, immunological dysfunction, and musculoskeletal changes. In the model a unilateral peripheral hyperalgesia is produced in rats by nerve ligation (G. J. Bennett, et al., Pain 33, 87-107 (1988)).
Procedurally, Sprague-Dawley rats (250-350 g) are anesthetized with sodium pentobarbital and the common sciatic nerve is exposed at the level of the mid thigh by blunt dissection through the biceps femoris. A section of nerve (about 7 mm), proximal to the sciatic trifucation, is freed of tissue and ligated at four positions with chromic gut suture. The suture is tied with about 1 mm spacing between ligatures. The incision is closed in layers and the animals are allowed to recuperate. Thermal hyperalgesia is measured using a paw-withdrawal test (K. Hargreaves, et al., Pain 32, 77-88 (1988)). To perform the test, animals are habituated on an elevated glass floor. A radiant heat source is aimed at the mid-plantar hindpaw (sciatic nerve territory) through the glass floor with a 20 second cut-off used to prevent injury to the skin. The latencies for the withdrawal reflex in both hind paws are recorded.
Injured paws with ligated nerves show shorter paw withdrawal latencies compared to the uninjured or sham operated paws. Responses to test compounds are evaluated at different times after oral administration to determine the onset and duration of compound effect. When performing the test, groups of CCI rats receive either vehicle or the test compound orally three times daily for 5 days. Paw withdrawal latencies are measured each day 10 min before and 2 or 3 hr. after the first daily dose. Compound efficacy is expressed as mean percentage decrease of hyperalgesia compared to that of vehicle-treated animals, calculated as follows:
(Mean of vehicle group−Mean of compound group)×100/(Mean of vehicle group).
Data analysis was performed by the multiple means comparison test (Dunnett's test) and results are expressed and compound potencies are expressed as the MED (minimum effective dose), in mg/Kg/day, that yields a percent (%) decrease in hyperalgesia that is statistically significant.

With `Cc1cc(C)c(-n2nc(O)c3[nH]c4cc(Cl)ccc4c(=O)c3c2=O)c(C)c1` [Ex. 1, 7-Chloro-4-hydroxy-2-(2,4,6-trimethylphenyl)-1,2,5,10-tetrahydropyridazino[4,5-b]quinoline-1,10-dione] as the compound, how does the “Test B First phase Dose (% Inh.): % inhibition of nociceptive response” value ([1]; first phase (0-5 min)) read?
Its value is 200 (43%).

And the “Test B Second phase Dose (% Inh.): % inhibition of nociceptive response” value ([1]; second phase (20-35 min))?
The value was 200 (54%).

What about the Ki [2] of the same compound?
Its Ki is 0.0399 µM.

And the melting point?
The melting point was 187 to 189 °C.

And the “Test C (% Inh.): percent decrease in hyperalgesia” value ([3]; at the MED)?
The value was 82%.

And the “Test C MED (minimum effective dose)” value ([3]; three times daily for 5 days)?
Its value is 15 mg/kg/day.
